The values that follow come from paper PMC3743770, “A Selective HDAC 1/2 Inhibitor Modulates Chromatin and Gene Expression in Brain and Alters Mouse Behavior in Two Mood-Related Tests” (PLoS ONE, 2013).

Read-outs that look alike come from different tables or passages of the source.

Data set [1] concerns transcripts in PFC, NAc and HIP. The data set can be described thus: Whole genome transcript profiling of brain regions (microarray). The format is in vivo, mouse. How it is done:
Frozen mouse brains (n = 6/treatment group) were rapidly dissected at 4°C to isolate medial prefrontal cortex (PFC), nucleus accumbens (NAc) and hippocampus (HIP) for mRNA extraction. Whole genome transcript profiling was performed using the Illumina MouseWG-6 Expression BeadChip with subsequent validation by quantitative real-time PCR (qPCR) and is available online at the NCBI Gene Expression Omnibus repository (GSE47452).
Frozen mouse brains (n = 6/ treatment group) were rapidly dissected at 4°C, isolating medial prefrontal cortex, nucleus accumbens and hippocampus. […] For microarray experiments on Illumina MouseWG-6 BeadChips, RNA samples were pooled from two biological replicates such that the total number of samples was 27 (3 treatment groups x 3 brain regions x 3 RNA pools representing two mice per pool). All microarray analysis and gene set analysis (GSA) was performed using GeneSpring software (v.11.5.1) with raw signals adjusted using quantile normalization and baseline transformation with the median signal in all samples set to zero. Data were included in subsequent analyses if the normalized signal, thresholded at 0.8, was ‘present’ for 3 of 3 replicates for like treatment and tissue groups. […] Primer sequences for qPCR validation were designed using NCBI PRIMER-BLAST (Table S2).

The nature of data set [2]: Mouse brain pharmacokinetics. The format is in vivo. How it is done:
Plasma, brain samples, and dose formulations, were analyzed as previously described using high performance liquid chromatography/mass spectrometry. Data acquisition and control system were created using Analyst 1.4 software (ABI Inc, Canada).

In data set [3] the test system is C57BL/6 mice. The data set can be described thus: Amphetamine-induced hyperlocomotion (AIH). It counts as in vivo, mouse. The following applies: chronic i.p.; Cpd-60 45 mg/kg, SAHA 25 mg/kg; vs vehicle; amphetamine 3.5 mg/kg. The protocol:
(§1) Compounds were administered between 9 am and 1 pm for 7 days prior to the start of behavioral testing, and after completion of each daily session during behavioral testing. Testing was performed 18–24 hr after the previous treatment to avoid transient effects. Amphetamine-induced hyperlocomotion (AIH) was performed as previously described on days 7–9 of treatment with activity measured before and after amphetamine challenge (AccuScan Instruments, Inc.). Forced-swim test (FST) behavior was performed as previously described on day 10 of treatment and total time spent immobile during a 6 min session was scored automatically (Ethovision; Noldus). Treatment effects were analyzed by one way analysis of variance (ANOVA) with post hoc analysis using Least Squared Differences test (SPSS v18.0 IBM).

Data set [4] deals with C57BL/6 mice. The data set can be described thus: Forced-swim test (FST). The format is in vivo, mouse. The protocol: as §1
In data set [5] the test system is H4K12 acetylation in HEK293 cells. In words: H4K12 acetylation western blot, constant exposure and washout. The format is cell-based, human. How it is done: Frozen mouse brains (n = 6/treatment group) were rapidly dissected at 4°C to isolate frontal cortex (including PFC), ventral striatum (including NAc), and HIP for protein extraction. […] Solutions for protein extraction were supplemented with 5 mM sodium butyrate to suppress residual HDAC activity. […] Densitometric quantification was performed using Image J software (NIH) and statistical comparison to vehicle-treated controls by two-tailed t-test.
Protein was extracted by douncing in suspension buffer: 0.1 M NaCl, 0.01 M TrisCl (ph7.6), 0.001 M EDTA (pH 8.0), then immediately diluted with an equal volume of 2x SDS-gel loading buffer: 100 mM TrisCl (ph 6.8), 4% SDS, 20% glycerol, 200 mM DTT. […] Media was aspirated and cells collected for Western blotting using 40 μL buffers as detailed above for mouse brain. Solutions for protein extraction were supplemented with 5 mM sodium butyrate to suppress residual HDAC activity. Samples were denatured at 95°C for 5 min, passaged 3x through a 25 gauge needle and centrifuged at 10,000g for 10 min at room temperature and protein quantification performed using a BCA protein assay kit #23225 (Pierce). […] Chemiluminescent detection of immunoreactivity was performed using SuperSignal West Dura Substrate #34076 (Pierce) with subsequent densitometric quantification using Image J software (NIH) and statistical comparison to vehicle-treated controls by two-tailed t-test.
(A western blot detects proteins with antibodies after separation by electrophoresis.)

Data set [6] relates to transcripts in whole brain. The following applies: chronic lithium, ref McQuillin et al, 2007; cited from earlier work.
Data set [7] deals with C57BL/6 mice. The following applies: 85 mg/kg i.p.; cited from earlier work.

In the case of `O=C(CCCCCCC(=O)Nc1ccccc1)NO` [SAHA, suberoylanilide hydroxamic acid], the “overlap with the 121 transcripts modulated by lithium” value in data set [1] (Gene Set Enrichment Analysis) is “no significant overlap”. The “transcripts altered across the three regions” value in data set [1] (PFC, NAc, HIP compiled, ≥[…] vs vehicle) is on record as 288. In addition, the “transcripts up- or down-regulated, summed across the three brain regions” value in data set [1] (Tukey's HSD p<0.05 vs vehicle) turned out to be 1530. In data set [1] (≥[…], post hoc p<0.05), the “downregulated transcripts HIP (total)” value amounted to 148, the “downregulated transcripts NAc (total)” value was 16, the “downregulated transcripts PFC (total)” value amounted to 5 and the “upregulated transcripts HIP (total)” value worked out at 104. For the same compound, in data set [1] (≥[…], post hoc p<0.05), the “upregulated transcripts NAc (total)” value is 5 and the “upregulated transcripts PFC (total)” value is on record as 7. The half-life in data set [2] (C57BL/6, mouse, brain, ip, read-out: brain T1/2 (converted)) is 26.4 min. The “time until cleared from the brain” value in data set [2] (systemic treatment) was at most 2 h. Moreover, in the data set with C57BL/6 mice [3], the “reduction of amphetamine-induced hyperlocomotion” value was “no effect”. The “reduction in immobility time” value with C57BL/6 mice [4] (chronic i.p., day 10, Cpd-60 45 mg/kg, SAHA 25 mg/kg, vs vehicle) was “did not influence mouse behavior in either paradigm”. In addition, the “H4K12ac levels after washout” value in data set [5] (HEK293, 20 µM 24 hr, then 6 hr after media change) is given as “only Cpd-60-treated cells showed persistent increases in H4K12ac”. The “H4K12ac levels, constant exposure” value in data set [5] (HEK293, 20 µM for 24 hr) is “elevated H4K12ac levels”.
For the compound `CNCCCN1c2ccccc2CCc2ccccc21` [desipramine], in the data set on C57BL/6 mice [4] (15 mg/kg i.p., n = 16/group, data not shown), the “reduction in immobility time” value is recorded as 55%.
Consider `[Li]` [lithium], for which, in data set [6], the Agxt2l1 fold change is 2.73 fold change, the Igfbp5 fold change was -1.56 fold change, the Mef2c fold change was -1.22 fold change and the Mfsd2 fold change was 2.65 fold change. For the same compound, in data set [6], the Nrxn1 fold change was -1.18 fold change, the Per2 fold change is listed as 2.47 fold change, the Qdpr fold change was -1.46 fold change and the Sgk1 fold change is recorded as 2.85 fold change. Further, in data set [6], the Sult1a1 fold change is given as 6.28 fold change, the Tsc22d3 fold change is given as 1.95 fold change and the Usp54 fold change is 1.57 fold change. Moreover, the “reduction in immobility time” value in the data set on C57BL/6 mice [7] is listed as 48%.
